Laboratory results: patent publication US11427547B2, “Edaravone prodrug compound and pharmaceutical use thereof in treatment or alleviation of neurodegenerative or motor neuron disease” (J2H BIOTECH INC., priority 2018, dated 2022)
≈ marks a conversion by molar mass, not a printed value. Counter-ions that a name gives are not always drawn.

Key:
[1] = Pharmacokinetic evaluation: edaravone in plasma after single oral administration to rats; type: in vivo, SD (Sprague-Dawley) rats; conditions: SD rats
Experimental: The pharmacokinetic test of the compounds of Examples and Reference Example was carried out as follows. That is, after a single oral administration of the test compound to SD (Sprague-Dawley) rats, the efficacy of the compound of the present invention was verified by tracking the kinetics of the edaravone released into the blood by metabolic processes and comparing it with a standard substance. Specifically, edaravone, a standard substance, was administered intravenously and orally, respectively, and the test compounds were administered orally. Then, the concentration of edaravone in blood was evaluated. The standard substance and the test compounds were each prepared in the same manner and then administered to rats at a dose of 0.1 mmol/kg, and blood was collected at a predetermined time and plasma was separated. Analysis of the drug was performed using HPLC (XBridge column Cis, Waters, mobile phase 0.1% formic acid:acetonitrile (30:70, %/%)) and MS/MS (ESI positive, MRM). Each commercial standard solution was mixed in a ratio of 9:1 with rat plasma to prepare and calibrate at concentrations of 5, 50, 100, 500, 1000 and 5000 ng/ml. In addition, the QC sample was prepared by mixing the rat plasma and the standard solution for QC at a ratio of 9:1, and at concentrations of 100, 750 and 2,500 ng/ml. In the pretreatment method, 100 μl of plasma sample was transferred to a tube for centrifugation, 10 μl of an internal standard solution and 300 μl of methanol were added, followed by mixing for about 30 seconds. The tube was centrifuged at 3,000×g (4° C.) for about 5 minutes, the supernatant was taken and transferred to an LC vial, and then injected into the instrument. In addition, the concentration of an active ingredient, that is, edaravone, in rat plasma was quantified by applying a previously validated analysis method. For pharmacokinetic parameters, WinNonlin 5.2 (Pharsight, USA) program was used, and AUC0-t, AUC0-∞, Cmax, Tmax, and t1/2 were calculated by noncompartment modeling (best fit). The pharmacokinetic parameter results were expressed as mean and standard deviation (SD), and statistically processed using the SPSS program (Statistical Package for the Social Sciences, 10.0K, USA).

[2] = cited from earlier work
[3] = in vivo; cited from earlier work
[4] = cited from earlier work; remark: listed apart in the source

Compound	oral bioavailability (in words) [1]	solubility [2]	oral absorption rate (Fabs) [3]	permeability (Peff) [4]
Cc1cc(OC(=O)N2CCN(C(=O)[C@@H](N)C(C)C)CC2)n(-c2ccccc2)n1.Cl [Example 10, (S)-3-methyl-1-phenyl-1H-pyrazol-5-yl 4-(2-amino-3-methylbutanoyl)piperazine-1-carboxylate Hydrochloride]	excellent			
Cc1cc(OC(=O)N2CCN(C(=O)[C@@H](N)C(C)C)[C@@H](C)C2)n(-c2ccccc2)n1.Cl [Example 14, (S)-3-methyl-1-phenyl-1H-pyrazol-5-yl 4-((S)-2-amino-3-methylbutanoyl)-3-methylpiperazin-1-carboxylate Hydrochloride]	excellent			
Cc1cc(OC(=O)N2CCN(C(=O)[C@@H](N)C(C)(C)C)CC2)n(-c2ccccc2)n1.Cl [Example 15, (S)-3-methyl-1-phenyl-1H-pyrazol-5-yl 4-(2-amino-3,3-dimethylbutanoyl)piperazine-1-carboxylate Hydrochloride]	excellent			
Cc1cc(OC(=O)N2CCN(C(=O)[C@@H](N)CCCCN)CC2)n(-c2ccccc2)n1 [Example 19, (S)-3-methyl-1-phenyl-1H-pyrazol-5-yl 4-(2,6-diaminohexanoyl)piperazine-1-carboxylate Dihydrochloride]	excellent			
CC1=NN(c2ccccc2)C(=O)C1 [edaravone]		1.85 mg/mL (≈ 10.6 mM)	5.23%	3.18e-07 cm/s
